Measured values published in patent US9850283B2, “Macrocyclic inhibitors of the PD-1/PD-L1 and CD80(B7-1)/PD-L1 protein/protein interactions” (BRISTOL-MYERS SQUIBB COMPANY, priority 2013, dated 2017).
Read-outs that look alike come from different tables or passages of the source. Positions of bridges follow the written chain, without caps; N, C: chain ends. Non-standard residues stand in square brackets, D forms with d. Residues, ends and D or L forms follow the SMILES beside them. ξ: configuration not given here. *: point of attachment. Bta = N[C@@H](Cc1csc2ccccc12)C(=O)O; ξPro(4R-OH) = O=C(O)C1C[C@@H](O)CN1; Hyp = O=C(O)[C@@H]1C[C@@H](O)CN1; dNMeNle = CCCC[C@@H](NC)C(=O)O; NMeNle = CCCC[C@H](NC)C(=O)O; NMeA = CN[C@@H](C)C(=O)O; Orn = NCCC[C@H](N)C(=O)O; Dab = NCC[C@H](N)C(=O)O; Dap = NC[C@H](N)C(=O)O; ξPip = O=C(O)C1CCCCN1; Bz = O=C(c1ccccc1)*; Sar = CNCC(=O)O

What was measured:
[1] = target: T1, LK35.2-hPD-L1 cells / PE-labeled PD-1-Ig (Homo sapiens, UniProt Q9NZQ7); experiment: LK35.2-hPD-L1 cell binding high-content screening assay; assay type: cell-based
T1 construct: expressed in transfected cells; host or cells: LK35.2 mouse B cell line
T1 sequence (Q9NZQ7 19-290): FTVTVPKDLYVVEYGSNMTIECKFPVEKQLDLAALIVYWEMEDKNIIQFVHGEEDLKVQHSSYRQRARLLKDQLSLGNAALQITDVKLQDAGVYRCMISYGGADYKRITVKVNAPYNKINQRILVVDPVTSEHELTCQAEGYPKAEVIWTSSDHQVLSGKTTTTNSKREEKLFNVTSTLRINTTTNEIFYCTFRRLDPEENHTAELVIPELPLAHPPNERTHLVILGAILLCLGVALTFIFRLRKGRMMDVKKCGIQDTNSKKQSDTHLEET
How it was run: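 Compound effect on PD-1/PD-L1 binding is measured by imaging cell-associated phycoerythrin signal. Human PD-1-Ig (PE on Ig tag, 1 nM final) is applied with compound to a murine B cell line overexpressing human PD-L1 for 1 h at 37 °C in serum-containing RPMI.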

[2] = target: T2, Human PD-L1/PD-1 (Homo sapiens, UniProt Q9NZQ7); experiment: HTRF PD-1-Ig/PD-L1-His binding assay (human PD-L1)
T2 construct: made in house; host or cells: HEK293T
T2 sequence (Q9NZQ7 with tags, fused parts or gaps): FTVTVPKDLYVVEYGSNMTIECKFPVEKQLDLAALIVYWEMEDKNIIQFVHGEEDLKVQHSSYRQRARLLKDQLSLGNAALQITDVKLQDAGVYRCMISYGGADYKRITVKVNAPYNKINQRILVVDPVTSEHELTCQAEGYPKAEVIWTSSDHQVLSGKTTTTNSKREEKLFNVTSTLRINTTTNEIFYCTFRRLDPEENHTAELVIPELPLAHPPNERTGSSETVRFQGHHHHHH
How it was run: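 Steps: truncated PD-1-Ig and PD-L1-His fusions are incubated in dPBS containing 0.1% (w/v) BSA and 0.05% (v/v) Tween-20. Detection antibodies are then added (Eu cryptate anti-Ig at 1 nM final, APC anti-His at 20 nM final), and time-resolved FRET is measured.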

[3] = cluster symbol, cell line of CBA not given (LK35.2-hPD-L1 or 293T-hPD-L1), read-out: CBA IC50 cluster
[4] = cluster symbol, read-out: HTRF IC50 cluster

Compound | IC50 [1, 3] [nM] | IC50 [2, 4] [nM] | further results
CCCC[C@H]1C(=O)N(C)[C@@H](CCCC)C(=O)N[C@@H](C)C(=O)N[C@H](C(N)=O)CSCC(=O)N[C@@H](Cc2ccc(O)cc2)C(=O)N(C)[C@@H](C)C(=O)N[C@@H](CCC(=O)O)C(=O)N2CCC[C@H]2C(=O)N[C@@H](CN)C(=O)N[C@@H](CC(C)C)C(=O)N2C[C@H](O)C[C@H]2C(=O)N[C@@H](Cc2c[nH]c3ccccc23)C(=O)N[C@@H](CO)C(=O)N[C@@H](Cc2c[nH]c3ccccc23)C(=O)N1C [Example 1172] ({CH2CO}-Y[NMeA]EP[Dap]L[Hyp]WSW[NMeNle][NMeNle]AC-NH2; thioether N-14) | 4.78 to 72.9 | 0.385 to 6.74 | –
CCCC[C@H]1C(=O)N(C)CC(=O)N[C@@H](Cc2ccc(O)cc2)C(=O)N[C@@H](C(C)C)C(=O)N(C)[C@@H](Cc2ccccc2)C(=O)N[C@@H](Cc2ccc(O)cc2)C(=O)N(C)CC(=O)N[C@@H](Cc2c[nH]c3ccccc23)C(=O)N[C@@H](Cc2ccc(O)cc2)C(=O)N[C@@H](CC(C)C)C(=O)N[C@H](C(=O)NCC(N)=O)CSCC(=O)N[C@@H](Cc2ccccc2)C(=O)N(C)[C@@H](Cc2ccccc2)C(=O)N1C [Example 3154] (HELM PEPTIDE1{[O=C(C[*:3])[*:2]].F.[meF].[CCCC[C@@H](C(=O)[*:2])N(C)[*:1]].[Sar].Y.V.[meF].Y.[Sar].W.Y.L.C.G.[am]}$PEPTIDE1,PEPTIDE1,1:R3-14:R3$$$V2.0) | – | – | IC50 ([1]; cell line of CBA not given (LK35.2-hPD-L1 or 293T-hPD-L1), read-out: CBA IC50 value): 18.4 nM; IC50 ([2]; read-out: HTRF IC50 value): 230 nM
CCCC[C@H]1C(=O)N(C)[C@@H](CCCC)C(=O)N[C@@H](CCN)C(=O)N[C@H](C(=O)NCC(N)=O)CSCC(=O)N[C@@H](Cc2ccc(O)cc2)C(=O)N(C)[C@@H](C)C(=O)N[C@@H](CC(N)=O)C(=O)N2CCC[C@H]2C(=O)N[C@@H](Cc2cnc[nH]2)C(=O)N[C@@H](CC(C)C)C(=O)N2C[C@H](O)C[C@H]2C(=O)N[C@@H](Cc2c[nH]c3ccccc23)C(=O)N[C@@H](CO)C(=O)N[C@@H](Cc2c[nH]c3ccccc23)C(=O)N1C [Example 1131] | 0.158 to 4.71 | 0.385 to 6.74 | –
CCCC[C@H]1C(=O)N(C)[C@@H](CCCC)C(=O)N[C@@H](CN)C(=O)N[C@H](C(=O)NCC(N)=O)CSCC(=O)N[C@@H](Cc2ccc(O)cc2)C(=O)N(C)[C@@H](C)C(=O)N[C@@H](CC(=O)O)C(=O)N2CCC[C@H]2C(=O)N[C@@H](CN)C(=O)N[C@@H](CC(=O)O)C(=O)N2C[C@H](O)C[C@H]2C(=O)N[C@@H](Cc2c[nH]c3ccccc23)C(=O)N[C@@H](CCN)C(=O)N[C@@H](Cc2csc3ccccc23)C(=O)N1C [Example 1224] ({CH2CO}-Y[NMeA]DP[Dap]D[Hyp]W[Dab][Bta][NMeNle][NMeNle][Dap]CG-NH2; thioether N-14) | 0.158 to 4.71 | 0.385 to 6.74 | –
CCCC[C@H]1C(=O)N2CCC[C@@H]2C(=O)N[C@@H](CCCCN)C(=O)N[C@@H](C(C)C)C(=O)N(C)[C@@H](Cc2ccccc2)C(=O)N[C@@H](CCC(=O)O)C(=O)N2CCC[C@@H]2C(=O)N[C@@H](Cc2c[nH]c3ccccc23)C(=O)N[C@@H](Cc2ccc(O)cc2)C(=O)N[C@@H](CC(C)C)C(=O)N[C@H](C(=O)NCC(N)=O)CSCC(=O)N[C@@H](Cc2ccccc2)C(=O)N(C)[C@@H](Cc2ccccc2)C(=O)N1C [Example 3190] (HELM PEPTIDE1{[O=C(C[*:3])[*:2]].F.[meF].[CCCC[C@@H](C(=O)[*:2])N(C)[*:1]].[dP].K.V.[meF].E.[dP].W.Y.L.C.G.[am]}$PEPTIDE1,PEPTIDE1,1:R3-14:R3$$$V2.0) | 0.158 to 4.71 | 0.385 to 6.74 | –
CCCC[C@H]1C(=O)N(C)[C@@H](CCCC)C(=O)N[C@@H](CCCNC(=N)N)C(=O)N[C@H](C(=O)NCC(N)=O)CSCC(=O)N[C@@H](Cc2ccc(O)cc2)C(=O)N(C)[C@@H](C)C(=O)N[C@@H](CC(N)=O)C(=O)N2CCC[C@H]2C(=O)N[C@@H](CN)C(=O)N[C@@H](CC(C)C)C(=O)N2C[C@H](O)C[C@H]2C(=O)N[C@@H](Cc2c[nH]c3ccccc23)C(=O)N[C@@H](CO)C(=O)N[C@@H](Cc2c[nH]c3ccccc23)C(=O)N1C [Example 1114] ({CH2CO}-Y[NMeA]NP[Dap]L[Hyp]WSW[NMeNle][NMeNle]RCG-NH2; thioether N-14) | 0.158 to 4.71 | 6.76 to 30.3 | –
CCCC[C@H]1C(=O)N[C@@H](CCCNC(=N)N)C(=O)N[C@H](C(=O)NCC(N)=O)CSCC(=O)N[C@@H](Cc2ccccc2)C(=O)N(C)[C@@H](C)C(=O)N[C@@H](CC(N)=O)C(=O)N2CCC[C@H]2C(=O)N[C@@H](Cc2cnc[nH]2)C(=O)N[C@@H](CC(C)C)C(=O)N(C)CC(=O)N[C@@H](Cc2c[nH]c3ccccc23)C(=O)N[C@@H](CO)C(=O)N[C@@H](Cc2c[nH]c3ccccc23)C(=O)N[C@@H](CNC(=O)c2ccccc2)C(=O)N1C [Example 1013] ({CH2CO}-F[NMeA]NPHL[Sar]WSW[Dap](Bz)[NMeNle]RCG-NH2; thioether N-14) | – | – | IC50 ([1]; CBA IC50 cluster, cluster symbol, cell line of CBA not given (LK35.2-hPD-L1 or 293T-hPD-L1)): > 74.3 nM; IC50 ([2]; HTRF IC50 cluster, cluster symbol): > 30.5 nM
CCCC[C@H]1C(=O)N(C)CC(=O)N[C@@H](CC(=O)O)C(=O)N[C@@H](CCC(=O)O)C(=O)N(C)[C@@H](Cc2ccccc2)C(=O)N[C@@H](Cc2ccc(O)cc2)C(=O)N(C)CC(=O)N[C@@H](Cc2c[nH]c3ccccc23)C(=O)N[C@@H](Cc2ccc(O)cc2)C(=O)N[C@@H](CC(C)C)C(=O)N[C@H](C(=O)NCC(N)=O)CSCC(=O)N[C@@H](Cc2ccccc2)C(=O)N(C)[C@@H](Cc2ccccc2)C(=O)N1C [Example 3150] (HELM PEPTIDE1{[O=C(C[*:3])[*:2]].F.[meF].[CCCC[C@@H](C(=O)[*:2])N(C)[*:1]].[Sar].D.E.[meF].Y.[Sar].W.Y.L.C.G.[am]}$PEPTIDE1,PEPTIDE1,1:R3-14:R3$$$V2.0) | > 74.3 | > 30.5 | –
CCCC[C@H]1C(=O)N(C)[C@@H](CCCC)C(=O)N[C@@H](CN)C(=O)N[C@H](C(=O)NCC(N)=O)CSCC(=O)N[C@@H](Cc2ccc(O)cc2)C(=O)N(C)[C@@H](C)C(=O)N[C@@H](CC(=O)O)C(=O)N2CCC[C@H]2C(=O)N[C@@H](CN)C(=O)N[C@@H](CCC(N)=O)C(=O)N2C[C@H](O)C[C@H]2C(=O)N[C@@H](Cc2c[nH]c3ccccc23)C(=O)N[C@@H](CCN)C(=O)N[C@@H](Cc2csc3ccccc23)C(=O)N1C [Example 1223] ({CH2CO}-Y[NMeA]DP[Dap]Q[Hyp]W[Dab][Bta][NMeNle][NMeNle][Dap]CG-NH2; thioether N-14) | 0.158 to 4.71 | 0.385 to 6.74 | –
CCCC[C@@H]1C(=O)N(C)[C@H](CCCC)C(=O)N[C@@H](CCCN)C(=O)N[C@@H](C(=O)NCC(N)=O)CSCC(=O)N[C@@H](Cc2ccc(O)cc2)C(=O)N2CCCCC2C(=O)N[C@H](CC(=O)O)C(=O)N2CCC[C@H]2C(=O)N[C@H](Cc2c[nH]cn2)C(=O)N[C@@H](CCC(=O)O)C(=O)N2C[C@H](O)CC2C(=O)N[C@H](Cc2c[nH]c3ccccc23)C(=O)N[C@@H](CO)C(=O)N[C@@H](Cc2c[nH]c3ccccc23)C(=O)N1C (stereo partly drawn) [Example 1219] ({CH2CO}-Y[ξPip][dD]P[dH]E[ξPro(4R-OH)][dW]SW[dNMeNle][dNMeNle][Orn][dC]G-NH2; thioether N-14) | 0.158 to 4.71 | 6.76 to 30.3 | –
CCCC[C@H]1C(=O)N(C)[C@@H](CCCC)C(=O)N[C@@H](CCCNC(=N)N)C(=O)N[C@H](C(=O)NCC(N)=O)CSCC(=O)N[C@@H](Cc2ccccc2)C(=O)N(C)[C@@H](C)C(=O)N[C@@H](CC(N)=O)C(=O)N2CCC[C@H]2C(=O)N[C@@H](Cc2cnc[nH]2)C(=O)N[C@@H](CO)C(=O)N(C)CC(=O)N[C@@H](Cc2c[nH]c3ccccc23)C(=O)N[C@@H](CO)C(=O)N[C@@H](Cc2c[nH]c3ccccc23)C(=O)N1C [Example 6010] ({CH2CO}-F[NMeA]NPHS[Sar]WSW[NMeNle][NMeNle]RCG-NH2; thioether N-14) | – | > 30.5 | IC50 ([1]; cell binding assay, cell line not given, cluster symbol, read-out: CBA IC50 cluster): > 74.3 nM
